According to patent publication US11584709B2, “Multitarget drug for treating diseases in mammals” (“PHARMENTERPRISES EURASIA” LIMITED LIABILITY COMPANY, priority 2017, dated 2023):

What was measured:
[1] = Stability in blood plasma, rat; type: in vitro ADME; conditions: for Content, % from the initial, Mean (n = 2): rat blood plasma, 1 μM, 37° C.
Method: (§1) Compound 1 at a concentration of 1 μM was incubated for 24 hours in the blood plasma of human and various animal species (rats, mice, guinea pigs, rabbits, horses, dogs, bull, pygmy hogs) at 37° C. Aliquots were taken at time points of 0, 0.25, 1, 2, 4, 8 and 24 hours. In the case of blood plasma of rabbits and monkeys, Compound 1 was incubated for 4 hours, and aliquots were taken at time points 0, 0.25, 1, 4. After the protein precipitation with acetonitrile, samples were analyzed by HPLC-MS/MS to determine the concentration of Compound 1. Verapamil was used as a stable control.

[2] = system: imiquimod-induced ear psoriasis; assay: Mouse model of imiquimod-induced ear psoriasis; type: in vivo, female balb/c mice; conditions: for The gain in the thickness of the right (affected) ear relatively day 0: 0.3% ointment, M ± m, n = 10
Method: Psoriasis was simulated in female balb/c mice by applying Aldar cream (5% imiquimod) on the inner side of the right ear daily 1 time per day for 10 days (J Immunol. 2009 May 1; 182(9):5836-45). Vaseline was applied to intact animals: 20 mg on the right ear.
The assessment of the development of pathology was performed on 2nd, 4th, 6th, 8th and 10th day before the next application of Aldar cream by measuring the thickness of the left and right ears.

[3] = molecular target: T1, melanocortin receptor MC4R (Homo sapiens, UniProt P32245); assay: Activity of melanocortin receptors MC4R, CHO cells; type: cell-based; conditions: antagonist, NDP-alpha-MSH agonist (30 nM)
T1 construct: expressed in transfected cells; host or cells: CHO cells
T1 sequence (P32245 whole entry): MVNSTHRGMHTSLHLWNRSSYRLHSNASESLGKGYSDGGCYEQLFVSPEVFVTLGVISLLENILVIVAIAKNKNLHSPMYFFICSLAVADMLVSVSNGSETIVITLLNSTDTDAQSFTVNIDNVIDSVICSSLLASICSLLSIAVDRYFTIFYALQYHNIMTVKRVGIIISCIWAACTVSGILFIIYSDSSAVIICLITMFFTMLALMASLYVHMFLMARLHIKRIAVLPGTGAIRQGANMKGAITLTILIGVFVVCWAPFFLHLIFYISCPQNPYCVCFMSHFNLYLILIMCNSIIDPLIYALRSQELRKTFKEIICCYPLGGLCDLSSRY
Method: (§2) Compound 1 was dissolved in DMSO to a concentration of 100 mM; then a stock solution was serially diluted with DMSO. The maximum starting concentration of the substance is 100 μM. The effect was determined at 5 concentrations of the tested compounds, each concentration was studied twice. CHO cells expressing a melanocortin receptor MC4R were used in the experiment, these cells, after preincubation with a NDP-alpha-MSH agonist (30 nM), were incubated with the test compound. The activity of receptors was determined according to the intracellular calcium concentration by the homogeneous time resolved fluorescence spectroscopy.

indomethacin colitis = assay: Model of colitis induced by indomethacin; type: in vivo, male Wistar rats; conditions: 100 mg/kg; day 4; M ± m, n = 10
Method: The study was performed on male Wistar rats, which were subcutaneously injected with an indomethacin solution in a dose of 9 mg/kg for two days running to induce colitis. The injection solution was prepared as follows: first, indomethacin was dissolved in 100% ethanol, then it was diluted in 5% NaHCO3 solution. On the 4th day after euthanasia, the stomach and intestine were removed from the animals in the CO2 chamber, then the caecum was excised, 10 cm from the ileum and large intestine was cut off, and 5 cm—from the caecum, to assess gross lesions (J Ethnopharmacol. 2004 February; 90(2-3): 195-204).

[4] = Stability in blood plasma, monkey; type: in vitro ADME; conditions: 1 μM, 37° C.
Method: as §1

[5] = molecular target: T2, tachykinin receptor type 2 (NK2R) (Homo sapiens, UniProt P21452); assay: Activity of tachykinin receptor type 2 (NK2R), intracellular calcium, CHO cells; type: cell-based; conditions: antagonist, [Nleu10]-NKA-(4-10) (10 nM) agonist
T2 construct: expressed in transfected cells; host or cells: CHO cells
T2 sequence (P21452 1-398): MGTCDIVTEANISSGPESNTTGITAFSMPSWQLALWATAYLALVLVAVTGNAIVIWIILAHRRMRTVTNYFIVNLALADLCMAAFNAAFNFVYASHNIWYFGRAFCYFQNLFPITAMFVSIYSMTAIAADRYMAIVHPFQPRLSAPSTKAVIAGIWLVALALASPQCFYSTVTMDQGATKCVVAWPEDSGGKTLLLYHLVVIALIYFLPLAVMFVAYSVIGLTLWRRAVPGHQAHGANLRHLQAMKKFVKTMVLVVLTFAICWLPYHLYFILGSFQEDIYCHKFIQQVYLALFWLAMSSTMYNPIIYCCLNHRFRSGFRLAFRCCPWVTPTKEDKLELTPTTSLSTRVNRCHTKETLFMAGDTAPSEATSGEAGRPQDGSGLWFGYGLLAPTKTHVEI
Method: as §2, with “NK2R” for “a melanocortin receptor MC4R”, “said sells,” for “these cells,”, “after the” for “after”, “an [Nleu10]-NKA-(4-10) (10 nM) agonist,” for “a NDP-alpha-MSH agonist (30 nM),”, “by” for “by the homogeneous time resolved”, “spectroscopy (Biochem Biophys Res Commun. 1994 May 16; 200(3):1512-20).” for “spectroscopy.”

[6] = molecular target: T3, prokineticin receptor type 1 (PK1) (Homo sapiens, UniProt Q8TCW9); assay: Activity of prokineticin receptors type 1 (PK1), intracellular calcium, HEK-293 cells; type: cell-based; conditions: antagonist, PK1 agonist (3 nM)
T3 construct: expressed in transfected cells; host or cells: HEK-293 cells
T3 sequence (Q8TCW9 whole entry): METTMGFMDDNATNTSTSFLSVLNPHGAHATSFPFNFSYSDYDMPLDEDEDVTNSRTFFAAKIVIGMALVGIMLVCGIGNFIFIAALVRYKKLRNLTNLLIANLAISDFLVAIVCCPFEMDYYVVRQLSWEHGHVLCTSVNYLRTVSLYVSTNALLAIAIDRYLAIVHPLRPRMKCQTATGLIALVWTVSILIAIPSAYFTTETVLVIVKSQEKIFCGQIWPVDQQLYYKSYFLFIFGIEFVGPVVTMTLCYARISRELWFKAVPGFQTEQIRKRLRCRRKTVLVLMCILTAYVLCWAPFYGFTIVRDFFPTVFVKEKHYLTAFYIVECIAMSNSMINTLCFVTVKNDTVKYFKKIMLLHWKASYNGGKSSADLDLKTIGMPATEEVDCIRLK
Method: as §2, with “HEK-293” for “CHO”, “prokineticin receptors PK1” for “a melanocortin receptor MC4R”, “PK1” for “NDP-alpha-MSH”, “(3” for “(30”, “the” for “the homogeneous time resolved”, “spectroscopy (Mol Pharmacol. 2005 June; 67(6):2070-6).” for “spectroscopy.”

model of Crohn's disease = assay: Mouse model of Crohn's disease (TNBS); type: in vivo, male balb/c mice
Method: The study was performed on male balb/c mice. Animals, which starved for 24 hours, were injected with 150 μl/mouse of TNBS solution in 50% ethanol into the rectal hole of the mouse to the depth of 4 cm using a 3.5 F catheter. Next, the mice were turned upside down and held for 60 seconds. 150 μl of the 50% ethanol solution was injected into the healthy control (intact animals). The study lasted 7 days. The development of pathology was assessed by the death of animals.

SMILES: O=C(Cc1ccc(O)cc1)N[C@@H](Cc1ccccc1)C(=O)OCc1ccccc1 [Compound 1, benzyl (2S)-2-[2-(4-hydroxyphenyl)acetamido]-3-phenylpropanoate]
- hydrolysis in the blood plasma (in words) ([1]; blood plasma of rats, after 15 minutes): almost completely hydrolyzed
- Content, % from the initial, Mean (n = 2) ([1]; 0 hour): 100%
- Content, % from the initial, Mean (n = 2) ([1]; 0.25 hour): 0.00%
- Content, % from the initial, Mean (n = 2) ([1]; 1 hour): 0.00%
- Content, % from the initial, Mean (n = 2) ([1]; 2 hour): 0.00%
- Content, % from the initial, Mean (n = 2) ([1]; 4 hour): 0.00%
- Content, % from the initial, Mean (n = 2) ([1]; 8 hour): 0.00%
- Content, % from the initial, Mean (n = 2) ([1]; 24 hour): 0.00%
- The gain in the thickness of the right (affected) ear relatively day 0 ([2]; day 2): 14.1%
- The gain in the thickness of the right (affected) ear relatively day 0 ([2]; day 4): 22.1%
- The gain in the thickness of the right (affected) ear relatively day 0 ([2]; day 6): 28.0%
- The gain in the thickness of the right (affected) ear relatively day 0 ([2]; day 8): 19.4%
- The gain in the thickness of the right (affected) ear relatively day 0 ([2]; day 10): 7.9%
- reduction of the gain in the thickness of the right (affected) ear (in words) ([2]; summary of table 1): to the level of intact animals
- IC50 [3]: 7.6 µM
- Macroscopic assessment of the lesion, Caecum (indomethacin colitis): 0.4 ± 0.2 points
- Macroscopic assessment of the lesion, Ileum (indomethacin colitis): 0.6 ± 0.3& points
- Macroscopic assessment of the lesion, Large intestine (indomethacin colitis): 0.2 ± 0.1& points
- Macroscopic assessment of the lesion, Overall assessment (indomethacin colitis): 1.2 ± 0.4*& points
- Content, % from the initial, Mean (n = 2) ([4]; 0 hour): 100%
- Content, % from the initial, Mean (n = 2) ([4]; 0.25 hour): 38.3%
- Content, % from the initial, Mean (n = 2) ([4]; 1 hour): 1.69%
- Content, % from the initial, Mean (n = 2) ([4]; 4 hour): 0.00%
- IC50 [5]: 8.4 µM
- IC50 [6]: 5.7 µM
- The portion of dead animals (model of Crohn's disease; 50 mg/kg, 1 time per day, TNBS, 7 days, 10 animals): 30%
- decrease of the death of animals (model of Crohn's disease; summary of Table 4): more than 2 times
